What was measured:
UGT [1] = assay: p-nitrophenol glucuronidation, possum hepatic microsomes; type: in vitro ADME, possum (Trichosurus vulpecula)
Description: (§1) Microsomal preparation was as previously outlined. Individual livers were placed in beakers containing 1.15% KCl. All the procedures were carried out at 0–4 °C. The liver samples were minced and homogenised in buffer A (0.1 M Tris, 0.1 M potassium chloride, 1 mM EDTA, and 20 μM butylated hydroxytoluene, at pH = 7.4) using the Teflon-glass homogeniser (5–6 vertical passes). The samples were centrifuged for 20 min at 10,000× g. The supernatant was then transferred into another set of centrifuge tubes and spun for 60 min at 100,000× g. The pellet was resuspended in Buffer B (0.1 M potassium pyrophosphate, 1 mM EDTA, and 20 μM butylated hydroxytoluene, at pH = 7.4), homogenised and recentrifuged for 60 min at 100,000× g. Finally, the pellet was homogenised in 1–2 mL of Buffer C (10 mM Tris-HCl, 1 mM EDTA, and 4% glycerol (v/v)) and stored at […] until used. The protein concentration of the microsomes was determined using the Bicinchoninic acid (BCA) method.
(§2) The rate of p-nitrophenol glucuronidation was determined as previously reported. In short, the incubation mixture (500 µL in total) contained; 100 µL of 1 mg/mL microsomes, 50 µL of 1 M Tris-HCl (pH = 7.4), 20 µL of 0.25% (v/v) Triton-X 100, 50 µL of 50 mM MgCl2, 130 µL of double distilled water, 50 µL of 5 mM p-nitrophenol, 50 µL of the test compound, and 50 µL of uridine 5′-diphosphoglucuronic acid trisodium salt (UDPGA). The blank tubes had all components except UDPGA and microsomes; instead, 150 µL of 0.1 M phosphate buffer was added to equal the volume as the reaction mixture. The reaction mixture and the blank were incubated at 37 °C for 2 min. Then, 50 µL of 30 mM UDPGA was added to initiate the reaction which proceeded at 37 °C for 30 min (optimised incubation time). The reaction was stopped using 1 mL of 5% trichloroacetic acid (TCA). The tubes were centrifuged at 1800 g for 10 min and then 1 mL of supernatant was added to 250 µL of 2 M sodium hydroxide (NaOH). The absorbance was read at 405 nm. The sample reading was subtracted from the blank absorbance and divided by the extinction coefficient of p-nitrophenol ([…]) and the light path of the spectrophotometer (1 cm). The glucuronidation activities are expressed in µmol/mg/min and are the mean ± SEM of 3 independent experiments conducted in duplicate.

UGT [2] = assay: p-nitrophenol glucuronidation, mouse hepatic microsomes; type: in vitro ADME
Description: as §1, §2

UGT [3] = assay: p-nitrophenol glucuronidation, rat hepatic microsomes; type: in vitro ADME
Description: as §1, §2

CYP3A [4] = assay: CYP3A catalytic activity (erythromycin-N-demethylation), rat hepatic microsomes; type: in vitro ADME; settings: for activity at 30 min, 12.5 µM / activity at 30 min, 25 µM: liver microsomes, pH 7.4, probe erythromycin, read-out: CYP3A catalytic activity, % of Control
Description: as §1
(§3) CYP3A catalytic activity was determined using the erythromycin-N-demethylation activity assay as described previously. The reaction mixture (final volume of 1 mL and final protein concentration of 1 mg) contained 500 µL of microsomes in 0.1 M phosphate buffer (pH = 7.4), 400 µL of erythromycin buffer (0.45 mM), and 50 µL of the test compound was pre-warmed at 37 °C for 2 min. The reaction was initiated with 50 µL of 2.5 mM […] and incubated at 37 °C for 30 min (optimised incubation time). The reaction was stopped with the addition of 330 µL of 15% zinc sulphate. Tubes were vortexed and left for 5 min (at room temperature) and then 330 µL of saturated barium hydroxide was added. Tubes were further vortexed and left for 5 min (at room temperature). Tubes were then centrifuged at 1800 g for 10 min. To 830 µL of the supernatant, 330 µL of Nash reagent (30% (w/v) ammonium acetate, 0.4% (v/v) acetyl acetone) was added and further incubated at 60 °C for 30 min. The blank tube contained 330 µL of Nash reagent and 830 µL of Milli-Q-water. The tubes were centrifuged again at 1800× g for 10 min and the absorbance was read at 415 nm. Results presented are the mean ± SEM of 3 independent experiments conducted in duplicate.

CYP3A [5] = assay: CYP3A catalytic activity (erythromycin-N-demethylation), mouse hepatic microsomes; type: in vitro ADME; settings: for activity at 30 min, 12.5 µM / activity at 30 min, 25 µM: liver microsomes, pH 7.4, probe erythromycin, read-out: CYP3A catalytic activity, % of Control
Description: as §1, §3

CYP3A [6] = assay: CYP3A catalytic activity (erythromycin-N-demethylation), possum hepatic microsomes; type: in vitro ADME, possum (Trichosurus vulpecula); settings: for activity at 30 min, 12.5 µM / activity at 30 min, 25 µM: possum (Trichosurus vulpecula), liver microsomes, pH 7.4, probe erythromycin, read-out: CYP3A catalytic activity, % of Control
Description: as §1, §3

CYP3A [7] = settings: possum vs human liver microsomes; cited from earlier work

SMILES	p-nitrophenol glucuronidation activity (UGT [1]; 12.5 µM) [µmol/mg/min]	p-nitrophenol glucuronidation, % of Control (UGT [1]; 12.5 µM) [%]	p-nitrophenol glucuronidation activity (UGT [1]; 25 µM) [µmol/mg/min]	p-nitrophenol glucuronidation, % of Control (UGT [1]; 25 µM) [%]	p-nitrophenol glucuronidation activity (UGT [2]; 12.5 µM) [µmol/mg/min]	p-nitrophenol glucuronidation, % of Control (UGT [2]; 12.5 µM) [%]	p-nitrophenol glucuronidation activity (UGT [2]; 25 µM) [µmol/mg/min]	p-nitrophenol glucuronidation, % of Control (UGT [2]; 25 µM) [%]	p-nitrophenol glucuronidation activity (UGT [3]; 12.5 µM) [µmol/mg/min]	p-nitrophenol glucuronidation, % of Control (UGT [3]; 12.5 µM) [%]	p-nitrophenol glucuronidation activity (UGT [3]; 25 µM) [µmol/mg/min]	p-nitrophenol glucuronidation, % of Control (UGT [3]; 25 µM) [%]	CYP3A catalytic activity (CYP3A [4]; 12.5 µM) [nmol/mg/min]	CYP3A catalytic activity (CYP3A [4]; 25 µM) [nmol/mg/min]	activity at 30 min, 12.5 µM (CYP3A [4]; 12.5 µM) [%]	activity at 30 min, 25 µM (CYP3A [4]; 25 µM) [%]	CYP3A catalytic activity (CYP3A [5]; 12.5 µM) [nmol/mg/min]	CYP3A catalytic activity (CYP3A [5]; 25 µM) [nmol/mg/min]	activity at 30 min, 12.5 µM (CYP3A [5]; 12.5 µM) [%]	activity at 30 min, 25 µM (CYP3A [5]; 25 µM) [%]	also measured
CC12CCC(CC1=O)C2(C)C (centres unmarked) [Camphor, camphor]	4.01 ± 0.33	102.42 ± 1.78	3.97 ± 0.33	101.32 ± 1.34	2.42 ± 0.08	104.80 ± 1.79	2.31 ± 0.09	100.10 ± 2.45	2.62 ± 0.09	102.59 ± 1.43	2.72 ± 0.24	106.26 ± 6.99	0.63 ± 0.03	0.59 ± 0.04	101 ± 3.99	95 ± 1.81	0.68 ± 0.02	0.68 ± 0.03	97.1 ± 2.15	96.3 ± 3.21	CYP3A catalytic activity (CYP3A [6]; 12.5 µM): 0.40 ± 0.03 nmol/mg/min; CYP3A catalytic activity (CYP3A [6]; 25 µM): 0.41 ± 0.03 nmol/mg/min; activity at 30 min, 12.5 µM (CYP3A [6]; 12.5 µM): 102 ± 2.05%; activity at 30 min, 25 µM (CYP3A [6]; 25 µM): 104 ± 2.57%
CCCCCC12CCC(C(=O)O)(CC1)CC2 [4-pentylbicyclo[2.2.2]octane-1-carboxylic acid]	3.80 ± 0.27	98.44 ± 1.05	3.96 ± 0.17	102.71 ± 1.91	2.41 ± 0.06	98.73 ± 3.51	2.21 ± 0.14	90.15 ± 2.18	2.88 ± 0.13	103.95 ± 3.65	2.82 ± 0.07	101.89 ± 3.31	0.56 ± 0.05	0.55 ± 0.06	105 ± 3.3	102 ± 2.42	0.61 ± 0.04	0.67 ± 0.01	96.3 ± 1.91	106 ± 2.97	CYP3A catalytic activity (CYP3A [6]; 12.5 µM): 0.40 ± 0.05 nmol/mg/min; CYP3A catalytic activity (CYP3A [6]; 25 µM): 0.40 ± 0.02 nmol/mg/min; activity at 30 min, 12.5 µM (CYP3A [6]; 12.5 µM): 109 ± 3.58%; activity at 30 min, 25 µM (CYP3A [6]; 25 µM): 111 ± 7.26%
CC1(C)CCCCC1 [1,1-dimethylcyclohexane]	4.08 ± 0.18	100.68 ± 0.60	4.03 ± 0.23	99.32 ± 0.90	2.48 ± 0.13	105.97 ± 2.23	2.19 ± 0.09	93.67 ± 1.67	2.59 ± 0.08	100.53 ± 2.39	2.58 ± 0.05	100.29 ± 3.55	0.61 ± 0.07	0.61 ± 0.10	103 ± 7.68	100 ± 1.66	0.73 ± 0.03	0.79 ± 0.04	98.93 ± 0.94	107 ± 1.13	CYP3A catalytic activity (CYP3A [6]; 12.5 µM): 0.38 ± 0.01 nmol/mg/min; CYP3A catalytic activity (CYP3A [6]; 25 µM): 0.40 ± 0.02 nmol/mg/min; activity at 30 min, 12.5 µM (CYP3A [6]; 12.5 µM): 98 ± 1.28%; activity at 30 min, 25 µM (CYP3A [6]; 25 µM): 101.8 ± 0.61%
Cc1ncc2n1-c1ccc(Cl)cc1C(c1ccccc1F)=NC2 [midazolam]	–	–	–	–	–	–	–	–	–	–	–	–	–	–	–	–	–	–	–	–	Vmax of 1′-hydroxylmiazolam, fold lower in possum than in human liver microsomes (CYP3A [7]): 8 fold; Vmax of 4-hydroxymidazolam, fold lower in possum than in human liver microsomes (CYP3A [7]): 23 fold
COC(=O)[C@H]1CC[C@H](C(=O)OC)CC1 [dimethyl-trans-cyclohexane-1,4-dicarboxylate]	3.96 ± 0.20	102.94 ± 4.63	3.92 ± 0.19	101.67 ± 0.92	2.43 ± 0.06	107.00 ± 0.42	2.73 ± 0.12	120.23 ± 8.23	2.71 ± 0.13	90.77 ± 2.49	2.83 ± 0.20	94.83 ± 5.80	0.64 ± 0.02	0.73 ± 0.06	102 ± 2.42	116 ± 5.35	0.72 ± 0.02	0.77 ± 0.05	100 ± 1.31	106 ± 4.88	CYP3A catalytic activity (CYP3A [6]; 12.5 µM): 0.39 ± 0.02 nmol/mg/min; CYP3A catalytic activity (CYP3A [6]; 25 µM): 0.42 ± 0.03 nmol/mg/min; activity at 30 min, 12.5 µM (CYP3A [6]; 12.5 µM): 102 ± 4.76%; activity at 30 min, 25 µM (CYP3A [6]; 25 µM): 111 ± 6%

Reference: article PMC8698377, “In Vitro Hepatic Assessment of Cineole and Its Derivatives in Common Brushtail Possums (Trichosurus vulpecula) and Rodents” (Biology, 2021)
